Row | melting point | Structure (SMILES)
1 | 156 to 158 °C | COC(=O)c1cccc(CN2CCc3cc(O)c(OC)cc3C2)c1 [70A, 2-(3-(Methoxycarbonyl)benzyl)-6-hydroxy-7-methoxy-1,2,3,4-tetrahydroisoquinoline]
2 | 150 to 154 °C | CCOc1ccc(CN2CCc3cc(O)ccc3C2)cc1OCC [B22, 2-(3,4-Diethoxybenzyl)-1,2,3,4-tetrahydroisoquinolin-6-ol]
3 | 161 to 162 °C | COc1cc2c(cc1OCc1ccccc1)CCN(Cc1ccc(C#N)cc1)C2 [29A, 6-Benzyloxy-2-(4-cyanobenzyl)-7-methoxy-1,2,3,4-tetrahydroisoquinoline]
4 | 151 to 152 °C | COc1cc2c(cc1OS(N)(=O)=O)CCN(Cc1cccc(NS(C)(=O)=O)c1)C2 [compound 88, 7-Methoxy-2-(3-(methylsulfonamido)benzyl)-1,2,3,4-tetrahydroisoquinolin-6-yl sulfamate]
5 | 63 to 66 °C | COc1cc2c(cc1OCc1ccccc1)CCN(Cc1cccc(NC(C)=O)c1)C2 [compound 35, 2-(3-Acetamidobenzyl)-6-(benzyloxy)-7-methoxy-1,2,3,4-tetrahydroisoquinoline]
6 | 158 °C | CCOc1cc(C(=O)N2CCc3cc(O)ccc3C2)cc(OCC)c1OCC [B14, 2-(3,4,5-Triethoxybenzoyl)-1,2,3,4-tetrahydroisoquinolin-6-ol]
7 | 127 to 132 °C | COc1cc2c(cc1O)CC(C)N(Cc1cc(OC)c(OC)c(OC)c1)C2 (centres unmarked) [compound 219, 2-(3,4,5-Trimethoxybenzyl)-1,2,3,4-tetrahydro-7-methoxy-3-methylisoquinolin-6-ol]
8 | 105 to 106 °C | COc1ccccc1CN1CCCc2cc(OCc3ccccc3)c(OC)cc2C1 [compound 302, 7-Benzyloxy-8-methoxy-2-(2-methoxybenzyl)-2,3,4,5-tetrahydro-1H-benzo[c]azepine]
9 | 62 to 63 °C | COc1cc2c(cc1O)C(O)CN(Cc1cc(OC)c(OC)c(OC)c1)C2 (centres unmarked) [F29, 7-Methoxy-2-(3,4,5-trimethoxybenzyl)-1,2,3,4-tetrahydroisoquinoline-4,6-diol]
10 | 137 to 138 °C | COc1cccc(CN2Cc3cc(OC)c(O)cc3C(O)C2)c1 (centres unmarked) [F28, 7-Methoxy-2-(3-methoxybenzyl)-1,2,3,4-tetrahydroisoquinoline-4,6-diol]
11 | 94 to 96 °C | CCOC1CN(Cc2cc(OC)c(OC)c(OC)c2)Cc2cc(OC)c(O)cc21 (centres unmarked) [F37, 4-Ethoxy-7-methoxy-2-(3,4,5-trimethoxybenzyl)-1,2,3,4-tetrahydroisoquinolin-6-ol]
12 | 158 to 159 °C | COc1cc(OC)cc(C(=O)N2CCc3cc(OCc4ccccc4)ccc3C2=O)c1 [compound 132, 6-Benzyloxy-2-(3,5-dimethoxybenzoyl)-3,4-dihydro-2H-isoquinoline-1-one]
13 | 116 to 117 °C | COc1cc2c(cc1OCc1ccccc1)CCN(Cc1cc(F)cc(F)c1)C2 [F5, 6-Benzyloxy-2-(3,5-difluorobenzyl)-7-methoxy-1,2,3,4-tetrahydroisoquinoline]
14 | 96 to 97 °C | COc1cccc(CN2Cc3cc(OC)c(OCc4ccccc4)cc3C(OC)C2)c1 (centres unmarked) [F20, 6-Benzyloxy-4,7-dimethoxy-2-(3-methoxybenzyl)-1,2,3,4-tetrahydroisoquinoline]
15 | 175 to 177 °C | COc1cc2c(cc1OCc1ccccc1)CC(C)(C)N(C(=O)c1cc(OC)c(OC)c(OC)c1)C2C (centres unmarked) [compound 245, (6-(Benzyloxy)-3,4-dihydro-7-methoxy-1,3,3-trimethylisoquinolin-2(1H)-yl)-(3,4,5-trimethoxyphenyl)methanone]
16 | 148 to 155 °C | COc1ccccc1CN1CCc2cc(O)ccc2C1 [B16, 2-(2-Methoxybenzyl)-1,2,3,4-tetrahydroisoquinolin-6-ol]

Row | melting point | Structure (SMILES)
17 | 180 to 186 °C | COc1cc(CCN2CCc3cc(O)ccc3C2)cc(OC)c1OC [B29, 2-(3,4,5-Trimethoxyphenethyl)-1,2,3,4-tetrahydroisoquinolin-6-ol]
18 | 188 to 191 °C | COc1cc(OC)c(OC)cc1CN1CCc2cc(O)ccc2C1 [B26, 2-(2,4,5-Trimethoxybenzyl)-1,2,3,4-tetrahydroisoquinolin-6-ol]
19 | 198 to 200 °C | COc1cc2c(cc1O)CC(C)(C)N(C(=O)c1cc(OC)c(OC)c(OC)c1)C2C (centres unmarked) [compound 246, (3,4-Dihydro-6-hydroxy-7-methoxy-1,3,3-trimethylisoquinolin-2(1H)-yl)(3,4,5-trimethoxyphenyl)methanone]
20 | 120 to 121 °C | CCOc1cccc(CN2CCc3cc(O)ccc3C2)c1 [B18, 2-(3-Ethoxybenzyl)-1,2,3,4-tetrahydroisoquinolin-6-ol]
21 | 168 to 169 °C | COc1ccc(CN2C(=O)CCc3cc(O)c(OC)cc32)cc1 [compound 292, 6-Hydroxy-7-methoxy-1-(4-methoxybenzyl)-3,4-dihydro-1H-quinolin-2-one]
22 | 180 to 188 °C | COc1cc(OC)c(C(=O)N2CCc3cc(O)ccc3C2)cc1OC [B11, 2-(2,4,5-Trimethoxybenzoyl)-1,2,3,4-tetrahydroisoquinolin-6-ol]
23 | 45 to 47 °C | COc1cc2c(cc1O)C(OC)CN(Cc1ccccc1OC)C2 (centres unmarked) [F30, 4,7-Dimethoxy-2-(2-methoxybenzyl)-1,2,3,4-tetrahydro-isoquinolin-6-ol]
24 | 149 to 160 °C | CCOc1ccc(C(=O)N2CCc3cc(O)ccc3C2)cc1OCC [B6, 2-(3,4-Diethoxybenzoyl)-1,2,3,4-tetrahydroisoquinolin-6-ol]
25 | 73 to 74 °C | COc1cc2c(cc1OCc1ccccc1)CCN(Cc1ccccn1)C2 [compound 12, 6-Benzyloxy-7-methoxy-2-(pyridin-2-ylmethyl)-1,2,3,4-tetrahydroisoquinoline]
26 | 101 to 102 °C | CCOC1CN(Cc2ccccc2OC)Cc2cc(OC)c(O)cc21 (centres unmarked) [F34, 4-Ethoxy-7-methoxy-2-(2-methoxybenzyl)-1,2,3,4-tetrahydroisoquinolin-6-ol]
27 | 178 to 192 °C | COc1ccc(OC)c(CN2CCc3cc(O)ccc3C2)c1 [B19, 2-(2,5-Dimethoxybenzyl)-1,2,3,4-tetrahydroisoquinolin-6-ol]
28 | 163 to 166 °C | COc1cc(OC)cc(C(=O)N2Cc3cc(OC)c(O)cc3CC2(C)C)c1 [compound 235, (3,4-Dihydro-6-hydroxy-7-methoxy-3,3-dimethylisoquinolin-2(1H)-yl)(3,5-dimethoxyphenyl)methanone]
29 | 78 to 79 °C | COc1cc2c(cc1OCc1ccccc1)CCN(Cc1cccc(O)c1)C2 [compound 30, 6-Benzyloxy-2-(3-hydroxybenzyl)-7-methoxy-1,2,3,4-tetrahydroisoquinoline]
30 | 189 to 195 °C | COc1cc(CN2CCc3cc(O)ccc3C2)cc(OC)c1 [B20, 2-(3,5-Dimethoxybenzyl)-1,2,3,4-tetrahydroisoquinolin-6-ol]
31 | 157 to 158 °C | COc1cc2c(cc1O)CCC(=O)N2Cc1cc(OC)c(OC)c(OC)c1 [compound 293, 6-Hydroxy-7-methoxy-1-(3,4,5-trimethoxybenzyl)-3,4-dihydro-1H-quinolin-2-one]

Row | Structure (SMILES) | melting point
32 | COc1cc2c(cc1O)CCN(Cc1cccc(OC(C)=O)c1)C2 [compound 51, 6-Hydroxy-7-methoxy-2-(3-acetoxybenzyl)-1,2,3,4-tetrahydroisoquinoline] | 120 to 122 °C
